For data set [1], the system named is Human KB-31 epidermoid carcinoma cells. The data set is described as follows: Proliferation inhibition of KB-31 cells (methylene blue staining). The class given is cell-based. As to conditions: KB-31 cell line, four days incubation with compound, repeated lines are separate determinations. The method, then: (§1) Stock solutions of the test compound of formula I 10 mM) in DMSO are prepared and stored at −20° C. Human KB-31 and (multidrug-resistant, P-gp 170 overexpressing) KB-8511 epidermoid carcinoma cells are from Dr. M. Baker, Roswell Park Memorial Institute (Buffalo, N.Y., USA) (for description see also Akiyama et al., Somat. Cell. Mol. Genetics 11, 117-126 (1985) und Fojo A., et al., Cancer Res. 45, 3002-3007 (1985)—KB-31 und KB-851 I both are derivatives of the KB-cell line (American Type Culture Collection) and are human epidermoid carcinoma cells. KB-31 cells can be cultivated in mono-layers using calf serum (M.A. Bio-products), L-glutamine (Flow), penicillin (50 Units/ml) und streptomycin (50 μg/ml (Flow); they then grow with a doubling rate of about 22 hours, and the relative efficiency of plating them out lies at about 60%. […] The cells are incubated at 37° C. in an incubator with 5% V/V CO2 and at 80% relative atmospheric humidity in MEM Alpha-medium which contains ribonucleosides und desoxyribonucleosides (Gibco BRL), complemented with 10 IU Penicillin, 10 μg/ml Streptomycin and 5% fetal calf serum. The cells are spread in an amount of 1.5×10^3 cells/well in 96-well-microtiter plates and incubated overnight. Serial dilutions of the test compounds in culture medium are added at day 1. The plates are then incubated for an additional period of four days, after which the cells are fixed using 3.3% v/v glutaraldehyde washed with water and finally stained with 0.05% w/v methylene blue. After washing again, the stain is eluted with 3% HCl and the optical density at 665 nm is measured with a SpectraMax 340 (Molecular Devices, Sunnyvale, Calif.). IC50-values are determined by mathematically fitting the data to curves using the SoftPro2.0 program (Molecular Devices, Sunnyvale, Calif.) and the formula […]/[(OD control)−(OD start)]×100.
(§2) The IC50 is defined as the concentration of a test compound at the end of the incubation period that leads to 50% of the number of cells in comparison to controls without test compound (concentration at halfmaximal inhibition of cell growth).
(§3) Proliferation inhibition (IC50) of epothilone derivatives (Examples 1-16) towards KB-31 and KB-8511 cell lines. Method as described above.

For data set [2], the system named is (multidrug-resistant, P-gp 170 overexpressing) KB-8511 epidermoid carcinoma cells. Kind of data set: Proliferation inhibition of KB-8511 cells (methylene blue staining). Format: cell-based, human. Conditions: KB-8511 cell line (multidrug-resistant, P-gp 170 overexpressing), four days incubation with compound, repeated lines are separate determinations. Here is the method: as §1, §2, §3

Values joined by “and” are separate entries in the source; they are usually repeats but may differ in a detail not shown here. Identical values can stand only once.

The IC50 is the concentration at which inhibition is half-maximal. As to `Cc1nc2cc([C@@H]3C[C@@H]4C[C@@H]4CCC[C@H](C)[C@H](O)[C@@H](C)C(=O)C(C)(C)[C@@H](O)CC(=O)O3)ccc2n1C` (stereo in doubt) [Example 15, 3-(1,2-Dimethyl-1H-benzoimidazol-5-yl)-7,11-dihydroxy-8,8,10,12-tetramethyl-4-oxa-bicyclo[14.1.0]heptadecane-5,9-dione], the half-maximal inhibitory concentration (IC50) in data set [1] (Homo sapiens, KB 3-1, 96 h) was found to be 0.467 nM; in data set [2] (Homo sapiens, 96 h), 1.01 nM.
`C/C1=C/C[C@@H](/C(C)=C/c2csc(C)n2)OC(=O)CCC(C)(C)C(=O)[C@H](C)[C@@H](O)[C@@H](C)CCC1` [Example 1, (Z)-(7R,8S,9S,16S)-8-Hydroxy-5,5,7,9,13-pentamethyl-16-[(E)-1-methyl-2-(2-methyl-thiazol-4-yl)-vinyl]-oxacyclohexadec-13-ene-2,6-dione]: the IC50 was determined as 106 nM in data set [1] (Homo sapiens, KB 3-1, 96 h) and 75.4 nM in data set [2] (Homo sapiens, 96 h).
In the same order, the values of `C/C(=C\c1csc(C)n1)[C@@H]1C[C@@H]2O[C@]2(C)CCC[C@H](C)[C@H](O)[C@@H](C)C(=O)C(C)(C)CCC(=O)O1` [Example 2, (1S,3S,10R,11S,12S,16R)-11-Hydroxy-8,8,10,12,16-pentamethyl-3-[(E)-1-methyl-2-(2-methyl-thiazol-4-yl)-vinyl]-4,17-dioxa-bicyclo[14.1.0]heptadecane-5,9-dione] are 5.12 nM and 2.18 nM.
For `Cc1nc2cc([C@@H]3C/C=C\CCC[C@H](C)[C@H](O)[C@@H](C)C(=O)C(C)(C)CCC(=O)O3)ccc2n1C` [Example 3, 16-(1,2-Dimethyl-1H-benzoimidazol-5-yl)-8-hydroxy-5,5,7,9-tetramethyl-oxacyclohexadec-13-ene-2,6-dione], the IC50 turned out to be 54.9 nM in data set [1] (Homo sapiens, KB 3-1, 96 h); 62 nM in data set [1]; 50.4 nM in data set [2] (Homo sapiens, 96 h); 62.3 nM in data set [2].
`Cc1nc2cc([C@@H]3C[C@@H]4O[C@@H]4CCC[C@H](C)[C@H](O)[C@@H](C)C(=O)C(C)(C)CCC(=O)O3)ccc2n1C` [Example 4, 3-(1,2-Dimethyl-1H-benzoimidazol-5-yl)-11-hydroxy-8,8,10,12-tetramethyl-4,17-dioxa-bicyclo[14.1.0]heptadecane-5,9-dione]: the IC50 is 6.56 nM in data set [1] (Homo sapiens, KB 3-1, 96 h); 7.95 nM and 7.65 nM in data set [1]; 36.6 nM in data set [2] (Homo sapiens, 96 h); 39.2 nM and 37.1 nM in data set [2].
`Cc1nc2cc([C@@H]3C[C@@H]4O[C@]4(C)CCC[C@H](C)[C@H](O)[C@@H](C)C(=O)C(C)(C)CCC(=O)O3)ccc2n1C` [Example 6, (1S,3S,10R,11S,12S,16R)-3-(1,2-Dimethyl-1H-benzoimidazol-5-yl)-11-hydroxy-8,8,10,12,16-pentamethyl-4,17-dioxa-bicyclo[14.1.0]heptadecane-5,9-dione]: the IC50 is less than 2 nM in data set [2] (Homo sapiens, 96 h) and 1.61 nM in data set [2].
In the case of `Cc1nc2cc([C@@H]3C/C=C/CCC[C@H](C)[C@H](O)[C@@H](C)C(=O)C(C)(C)CCC(=O)O3)ccc2n1C` [Example 7, (E)-(7R,8S,9S,16S)-16-(1,2-Dimethyl-1H-benzoimidazol-5-yl)-8-hydroxy-5,5,7,9-tetramethyl-oxacyclohexadec-13-ene-2,6-dione], the concentration for half-maximal inhibition (IC50) turned out to be 39.1 nM in data set [1] (Homo sapiens, KB 3-1, 96 h); 41.9 nM in data set [1]; 50.2 nM in data set [2] (Homo sapiens, 96 h); 49.9 nM in data set [2].
On to `Cc1nc2cc([C@@H]3C[C@@H]4O[C@H]4CCC[C@H](C)[C@H](O)[C@@H](C)C(=O)C(C)(C)CCC(=O)O3)ccc2n1C` [Example 8, (1S,3S,10R,11S,12S,16S)-3-(1,2-Dimethyl-1H-benzoimidazol-5-yl)-11-hydroxy-8,8,10,12-tetramethyl-4,17-dioxa-bicyclo[14.1.0]heptadecane-5,9-dione], for which the 50% inhibitory concentration (IC50) was 2.76 nM in data set [1] (Homo sapiens, KB 3-1, 96 h) and 5.83 nM in data set [2] (Homo sapiens, 96 h).
For `Cc1nc2cc([C@@H]3C/C=C/CCC[C@H](C)[C@H](O)[C@@H](C)C(=O)C(C)(C)[C@@H](O)CC(=O)O3)ccc2n1C` [Example 11, (E)-(4S,7R,8S,9S,16S)-16-(1,2-Dimethyl-1H-benzoimidazol-5-yl)-4,8-dihydroxy-5,5,7,9-tetramethyl-oxacyclohexadec-13-ene-2,6-dione], the concentration for half-maximal inhibition (IC50) in data set [2] (Homo sapiens, 96 h) is 25.1 nM; in data set [2] it was 36.6 nM and 37 nM.
Take `Cc1nc2cc([C@@H]3C[C@@H]4O[C@H]4CCC[C@H](C)[C@H](O)[C@@H](C)C(=O)C(C)(C)[C@@H](O)CC(=O)O3)ccc2n1C` [Example 12, (1S,3S,7S,10R,11S,12S,16S)-3-(1,2-Dimethyl-1H-benzoimidazol-5-yl)-7,11-dihydroxy-8,8,10,12-tetramethyl-4,17-dioxa-bicyclo[14.1.0]heptadecane-5,9-dione]: the IC50 in data set [1] (Homo sapiens, KB 3-1, 96 h) was 0.27 nM; in data set [1], 0.24 nM and 0.228 nM; in data set [2] (Homo sapiens, 96 h), 1.45 nM; in data set [2], 1.67 nM and 0.96 nM.
Turning to `Cc1nc2cc([C@@H]3C/C=C/CCC[C@H](C)[C@H](O)[C@@H](C)C(=O)C(C)(C)/C=C/C(=O)O3)ccc2n1C` [Example 13, (3E,13E)-(7R,8S,9S,16S)-16-(1,2-Dimethyl-1H-benzoimidazol-5-yl)-8-hydroxy-5,5,7,9-tetramethyl-oxacyclohexadeca-3,13-diene-2,6-dione], the IC50 was 144 nM in data set [1] (Homo sapiens, KB 3-1, 96 h); 138 nM and 152 nM in data set [1]; 74.1 nM in data set [2] (Homo sapiens, 96 h); 68.8 nM and 73.5 nM in data set [2].
Turning to `Cc1nc2cc([C@@H]3C[C@@H]4O[C@H]4CCC[C@H](C)[C@H](O)[C@@H](C)C(=O)C(C)(C)/C=C/C(=O)O3)ccc2n1C` [Example 14, (E)-(1S,3S,10R,11S,12S,16S)-3-(1,2-Dimethyl-1H-benzoimidazol-5-yl)-11-hydroxy-8,8,10,12-tetramethyl-4,17-dioxa-bicyclo[14.1.0]heptadec-6-ene-5,9-dione], the concentration for half-maximal inhibition (IC50) in data set [1] (Homo sapiens, KB 3-1, 96 h) amounted to 5 nM; in data set [1], 3.5 nM; in data set [2] (Homo sapiens, 96 h) it was 12.4 nM; in data set [2], 9.92 nM.
As to `Cc1nc2cc([C@@H]3C[C@@H]4C[C@H]4CCC[C@H](C)[C@H](O)[C@@H](C)C(=O)C(C)(C)[C@@H](O)CC(=O)O3)ccc2n1C` [Example 16, (1S,3S,7S,10R,11S,12S,16R)-3-(1,2-Dimethyl-1H-benzoimidazol-5-yl)-7,11-dihydroxy-8,8,10,12-tetramethyl-4-oxa-bicyclo[14.1.0]heptadecane-5,9-dione], the IC50 in data set [1] (Homo sapiens, KB 3-1, 96 h) was 0.149 nM; in data set [2] (Homo sapiens, 96 h), 0.11 nM.

These data come from patent US7825141B2, “Epothilone derivatives” (Novartis AG, priority 2004, dated 2010).
